Laboratory results as given in US11542240B2, “STK19 inhibitors for treatment of cancer” (TRUSTEES OF BOSTON UNIVERSITY, priority 2018, dated 2023).
Where two headings read alike, the source gives them in different places.

Key:
Experiment in all cases: biochemical
Format in all cases: binding
[1] = molecular target: panel of 468 diverse kinases (Homo sapiens, UniProt P29323); conditions: EPHB2; 1000 nM; read-out: Percent Control
[2] = molecular target: panel of 468 diverse kinases (Homo sapiens, UniProt Q02779); conditions: MLK2; 1000 nM; read-out: Percent Control
[3] = molecular target: panel of 468 diverse kinases (Homo sapiens, UniProt P10721, V559D); conditions: KIT(V559D); 1000 nM; read-out: Percent Control
panel of 468 diverse kinases (Homo sapiens, UniProt P10721, V559D), sequence (P10721 26-976 V559D limits assumed): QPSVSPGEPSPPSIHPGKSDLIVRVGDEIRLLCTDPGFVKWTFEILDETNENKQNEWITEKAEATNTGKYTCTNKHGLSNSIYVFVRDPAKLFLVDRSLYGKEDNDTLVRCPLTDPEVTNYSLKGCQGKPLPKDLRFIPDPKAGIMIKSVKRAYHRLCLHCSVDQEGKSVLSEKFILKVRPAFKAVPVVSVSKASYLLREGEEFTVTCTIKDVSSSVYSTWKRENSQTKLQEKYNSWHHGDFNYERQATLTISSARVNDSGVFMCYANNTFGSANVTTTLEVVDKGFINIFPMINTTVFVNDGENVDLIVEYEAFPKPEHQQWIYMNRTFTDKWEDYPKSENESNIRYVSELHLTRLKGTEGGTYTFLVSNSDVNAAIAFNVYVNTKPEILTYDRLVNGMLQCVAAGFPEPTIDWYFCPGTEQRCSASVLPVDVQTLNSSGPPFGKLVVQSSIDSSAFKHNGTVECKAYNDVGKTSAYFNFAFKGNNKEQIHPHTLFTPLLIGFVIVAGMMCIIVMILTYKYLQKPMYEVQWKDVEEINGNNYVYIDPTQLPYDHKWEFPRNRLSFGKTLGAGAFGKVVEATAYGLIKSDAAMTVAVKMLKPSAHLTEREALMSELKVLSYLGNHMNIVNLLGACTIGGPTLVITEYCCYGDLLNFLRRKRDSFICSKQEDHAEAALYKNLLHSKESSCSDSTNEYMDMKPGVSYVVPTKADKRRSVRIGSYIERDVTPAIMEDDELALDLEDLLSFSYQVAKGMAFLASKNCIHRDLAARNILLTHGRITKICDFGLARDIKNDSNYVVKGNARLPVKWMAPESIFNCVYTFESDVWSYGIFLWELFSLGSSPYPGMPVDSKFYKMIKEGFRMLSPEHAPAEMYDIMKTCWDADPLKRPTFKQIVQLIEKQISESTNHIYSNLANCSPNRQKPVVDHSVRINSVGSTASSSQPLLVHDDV

[4] = molecular target: panel of 468 diverse kinases (Homo sapiens, UniProt O95747); conditions: OSR1; 1000 nM; read-out: Percent Control
panel of 468 diverse kinases (Homo sapiens, UniProt O95747), sequence (O95747 2-527 limits assumed): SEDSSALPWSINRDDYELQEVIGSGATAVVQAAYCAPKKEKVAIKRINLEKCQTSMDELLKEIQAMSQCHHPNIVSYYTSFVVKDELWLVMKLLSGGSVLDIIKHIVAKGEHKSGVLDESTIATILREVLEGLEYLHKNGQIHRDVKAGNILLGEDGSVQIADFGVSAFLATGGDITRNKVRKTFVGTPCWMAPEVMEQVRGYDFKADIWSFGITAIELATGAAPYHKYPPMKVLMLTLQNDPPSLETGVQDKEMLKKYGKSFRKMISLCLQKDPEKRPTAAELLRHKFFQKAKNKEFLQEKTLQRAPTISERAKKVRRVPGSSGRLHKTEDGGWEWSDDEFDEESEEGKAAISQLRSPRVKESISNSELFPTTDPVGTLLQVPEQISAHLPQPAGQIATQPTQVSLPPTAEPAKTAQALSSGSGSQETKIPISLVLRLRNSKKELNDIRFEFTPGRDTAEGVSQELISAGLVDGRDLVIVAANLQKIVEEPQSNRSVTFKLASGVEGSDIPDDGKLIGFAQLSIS

[5] = molecular target: panel of 468 diverse kinases (Homo sapiens, UniProt P42679); conditions: CTK; 1000 nM; read-out: Percent Control
[6] = molecular target: panel of 468 diverse kinases (Homo sapiens, UniProt Q16566); conditions: CAMK4; 1000 nM; read-out: Percent Control
[7] = molecular target: panel of 468 diverse kinases (Homo sapiens, UniProt Q00535); conditions: CDK5; 1000 nM; read-out: Percent Control
[8] = molecular target: panel of 468 diverse kinases (Homo sapiens, UniProt Q13627); conditions: DYRKIV; 1000 nM; read-out: Percent Control
[9] = molecular target: panel of 468 diverse kinases (Homo sapiens, UniProt Q13882); conditions: BRK; 1000 nM; read-out: Percent Control
[10] = molecular target: panel of 468 diverse kinases (Homo sapiens, UniProt P07949, V804L); conditions: RET(V804L); 1000 nM; read-out: Percent Control
panel of 468 diverse kinases (Homo sapiens, UniProt P07949, V804L), sequence (P07949 29-1114 V804L limits assumed): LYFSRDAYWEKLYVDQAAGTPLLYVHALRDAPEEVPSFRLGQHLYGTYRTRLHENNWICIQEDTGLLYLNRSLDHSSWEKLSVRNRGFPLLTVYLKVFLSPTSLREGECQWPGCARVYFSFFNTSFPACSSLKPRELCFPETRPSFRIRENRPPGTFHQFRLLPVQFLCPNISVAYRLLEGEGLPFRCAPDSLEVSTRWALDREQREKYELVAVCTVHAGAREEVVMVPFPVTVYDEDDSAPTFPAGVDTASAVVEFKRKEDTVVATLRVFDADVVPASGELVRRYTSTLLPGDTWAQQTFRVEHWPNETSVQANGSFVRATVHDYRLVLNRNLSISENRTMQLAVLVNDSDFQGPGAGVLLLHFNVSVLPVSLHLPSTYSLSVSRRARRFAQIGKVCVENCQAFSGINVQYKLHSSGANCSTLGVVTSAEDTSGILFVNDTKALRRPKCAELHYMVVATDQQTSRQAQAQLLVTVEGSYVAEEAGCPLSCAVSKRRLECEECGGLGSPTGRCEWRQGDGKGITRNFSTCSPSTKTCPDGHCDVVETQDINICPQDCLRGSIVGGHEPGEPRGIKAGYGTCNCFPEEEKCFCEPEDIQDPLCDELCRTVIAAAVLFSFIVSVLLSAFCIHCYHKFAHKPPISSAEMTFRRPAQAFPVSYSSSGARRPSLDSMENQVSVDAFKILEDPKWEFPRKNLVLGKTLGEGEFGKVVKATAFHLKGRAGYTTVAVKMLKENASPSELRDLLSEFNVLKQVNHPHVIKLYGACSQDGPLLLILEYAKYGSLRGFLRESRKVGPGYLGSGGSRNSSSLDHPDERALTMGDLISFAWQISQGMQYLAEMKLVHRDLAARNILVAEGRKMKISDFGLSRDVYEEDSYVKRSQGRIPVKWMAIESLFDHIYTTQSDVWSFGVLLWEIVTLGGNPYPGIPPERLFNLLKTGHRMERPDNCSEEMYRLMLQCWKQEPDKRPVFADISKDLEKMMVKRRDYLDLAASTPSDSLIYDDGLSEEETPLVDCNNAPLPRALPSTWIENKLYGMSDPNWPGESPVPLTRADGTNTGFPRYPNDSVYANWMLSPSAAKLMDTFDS

[11] = molecular target: panel of 468 diverse kinases (Homo sapiens, UniProt Q14289); conditions: PYK2; 1000 nM; read-out: Percent Control
[12] = molecular target: panel of 468 diverse kinases (Homo sapiens, UniProt Q5S007, G2019S); conditions: LRRK2(G2019S); 1000 nM; read-out: Percent Control
[13] = molecular target: panel of 468 diverse kinases (Homo sapiens, UniProt Q9HC98); conditions: NEK6; 1000 nM; read-out: Percent Control
[14] = molecular target: panel of 468 diverse kinases (Homo sapiens, UniProt P21860); conditions: ERBB3; 1000 nM; read-out: Percent Control
[15] = molecular target: panel of 468 diverse kinases (Homo sapiens, UniProt O75582); conditions: 1000 nM, read-out: Percent Control
[16] = molecular target: panel of 468 diverse kinases (Homo sapiens, UniProt Q8TDX7); conditions: NEK7; 1000 nM; read-out: Percent Control
[17] = molecular target: panel of 468 diverse kinases (Homo sapiens, UniProt P32298); conditions: GRK4; 1000 nM; read-out: Percent Control
[18] = molecular target: panel of 468 diverse kinases (Homo sapiens, UniProt P51451); conditions: BLK; 1000 nM; read-out: Percent Control
[19] = molecular target: panel of 468 diverse kinases (Homo sapiens, UniProt Q9BWU1); conditions: CDK11; 1000 nM; read-out: Percent Control
[20] = molecular target: panel of 468 diverse kinases (Homo sapiens, UniProt P53778); conditions: p38-gamma; 1000 nM; read-out: Percent Control
[21] = molecular target: panel of 468 diverse kinases (Homo sapiens, UniProt P08581, Y1235D); conditions: MET(Y1235D); 1000 nM; read-out: Percent Control
panel of 468 diverse kinases (Homo sapiens, UniProt P08581, Y1235D), sequence (P08581 25-1390 Y1235D limits assumed): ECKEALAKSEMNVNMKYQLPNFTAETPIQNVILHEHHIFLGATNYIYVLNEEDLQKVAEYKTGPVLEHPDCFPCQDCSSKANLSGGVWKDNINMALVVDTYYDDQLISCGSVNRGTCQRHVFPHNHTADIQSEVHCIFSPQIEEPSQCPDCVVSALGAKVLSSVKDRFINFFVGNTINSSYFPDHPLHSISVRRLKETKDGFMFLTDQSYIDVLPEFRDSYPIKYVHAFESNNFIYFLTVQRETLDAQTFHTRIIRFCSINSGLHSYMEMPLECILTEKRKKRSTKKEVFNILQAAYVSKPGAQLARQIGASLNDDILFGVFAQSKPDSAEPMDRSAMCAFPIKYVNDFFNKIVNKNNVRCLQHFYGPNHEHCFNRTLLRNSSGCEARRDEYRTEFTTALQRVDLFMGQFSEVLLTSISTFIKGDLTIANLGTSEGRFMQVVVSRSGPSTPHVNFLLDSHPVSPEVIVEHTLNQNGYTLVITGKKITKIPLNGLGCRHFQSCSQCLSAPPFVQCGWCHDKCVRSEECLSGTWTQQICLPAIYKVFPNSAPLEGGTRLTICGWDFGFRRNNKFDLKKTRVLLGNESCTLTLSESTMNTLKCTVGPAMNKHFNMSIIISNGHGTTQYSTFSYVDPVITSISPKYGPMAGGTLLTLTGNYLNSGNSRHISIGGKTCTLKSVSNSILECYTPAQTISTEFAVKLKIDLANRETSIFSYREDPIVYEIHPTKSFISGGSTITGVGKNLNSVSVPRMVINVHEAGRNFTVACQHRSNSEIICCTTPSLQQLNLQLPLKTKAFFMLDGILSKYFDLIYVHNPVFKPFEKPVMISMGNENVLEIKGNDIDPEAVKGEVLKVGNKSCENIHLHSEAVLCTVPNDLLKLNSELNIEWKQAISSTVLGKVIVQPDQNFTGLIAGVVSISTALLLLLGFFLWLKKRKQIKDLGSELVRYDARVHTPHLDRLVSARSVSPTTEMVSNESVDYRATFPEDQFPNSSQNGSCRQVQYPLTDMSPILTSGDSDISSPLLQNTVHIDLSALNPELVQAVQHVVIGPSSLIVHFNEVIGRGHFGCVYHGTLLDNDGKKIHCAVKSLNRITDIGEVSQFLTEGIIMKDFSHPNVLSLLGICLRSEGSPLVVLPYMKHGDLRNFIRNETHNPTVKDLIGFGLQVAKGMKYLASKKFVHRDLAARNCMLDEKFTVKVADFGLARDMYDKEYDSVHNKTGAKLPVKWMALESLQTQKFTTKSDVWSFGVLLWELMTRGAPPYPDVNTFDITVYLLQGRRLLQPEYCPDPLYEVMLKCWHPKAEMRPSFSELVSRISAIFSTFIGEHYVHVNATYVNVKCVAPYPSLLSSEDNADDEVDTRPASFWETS

[22] = molecular target: panel of 468 diverse kinases (Homo sapiens, UniProt O60674); conditions: JAK2(JH1domain-catalytic); 1000 nM; read-out: Percent Control
[23] = molecular target: panel of 468 diverse kinases (Homo sapiens, UniProt Q9NSY1); conditions: BIKE; 1000 nM; read-out: Percent Control
[24] = molecular target: panel of 468 diverse kinases (Homo sapiens, UniProt Q9Y6M4); conditions: CSNK1G3; 1000 nM; read-out: Percent Control
[25] = molecular target: panel of 468 diverse kinases (Homo sapiens, UniProt Q9NWZ3); conditions: IRAK4; 1000 nM; read-out: Percent Control
[26] = molecular target: panel of 468 diverse kinases (Homo sapiens, UniProt Q9Y2U5); conditions: MAP3K2; 1000 nM; read-out: Percent Control
[27] = molecular target: panel of 468 diverse kinases (Homo sapiens, UniProt Q8TBX8); conditions: PIP5K2C; 1000 nM; read-out: Percent Control
[28] = molecular target: panel of 468 diverse kinases (Homo sapiens, UniProt P37173); conditions: TGFBR2; 1000 nM; read-out: Percent Control
[29] = molecular target: panel of 468 diverse kinases (Homo sapiens, UniProt Q02763); conditions: TIE2; 1000 nM; read-out: Percent Control
[30] = molecular target: panel of 468 diverse kinases (Homo sapiens, UniProt O60285); conditions: ARK5; 1000 nM; read-out: Percent Control

panel of 468 diverse kinases (Homo sapiens, UniProt P29323), sequence (P29323 19-1055 limits assumed): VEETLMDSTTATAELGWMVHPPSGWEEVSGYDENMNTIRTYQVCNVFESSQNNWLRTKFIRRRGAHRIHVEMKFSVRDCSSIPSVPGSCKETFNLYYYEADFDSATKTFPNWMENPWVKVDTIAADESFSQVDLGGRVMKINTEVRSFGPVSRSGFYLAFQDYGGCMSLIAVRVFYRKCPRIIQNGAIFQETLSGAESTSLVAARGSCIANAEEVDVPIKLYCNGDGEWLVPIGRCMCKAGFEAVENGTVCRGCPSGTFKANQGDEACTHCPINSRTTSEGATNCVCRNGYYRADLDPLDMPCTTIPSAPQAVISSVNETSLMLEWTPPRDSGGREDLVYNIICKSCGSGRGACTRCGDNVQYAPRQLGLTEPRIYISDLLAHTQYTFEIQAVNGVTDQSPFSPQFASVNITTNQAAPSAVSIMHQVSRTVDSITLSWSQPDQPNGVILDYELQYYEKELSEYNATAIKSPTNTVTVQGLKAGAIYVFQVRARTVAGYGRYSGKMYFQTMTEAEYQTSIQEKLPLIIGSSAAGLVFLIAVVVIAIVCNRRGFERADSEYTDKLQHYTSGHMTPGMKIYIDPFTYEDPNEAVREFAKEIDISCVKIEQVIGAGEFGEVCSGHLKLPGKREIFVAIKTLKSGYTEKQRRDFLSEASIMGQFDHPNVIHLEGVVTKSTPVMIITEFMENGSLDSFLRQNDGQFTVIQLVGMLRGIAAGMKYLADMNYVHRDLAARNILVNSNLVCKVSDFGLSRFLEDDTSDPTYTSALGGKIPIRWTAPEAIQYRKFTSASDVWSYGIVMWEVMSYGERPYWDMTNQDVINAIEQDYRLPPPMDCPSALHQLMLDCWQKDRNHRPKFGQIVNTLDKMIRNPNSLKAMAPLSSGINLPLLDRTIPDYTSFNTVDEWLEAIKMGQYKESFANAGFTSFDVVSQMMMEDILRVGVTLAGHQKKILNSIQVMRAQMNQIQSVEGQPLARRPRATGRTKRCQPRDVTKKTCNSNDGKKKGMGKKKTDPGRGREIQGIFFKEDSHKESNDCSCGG

COc1cc2nc(NC3CC3)nc(NC3CCN(C(C)C)CC3)c2cc1OC [Formula IV]
remaining activity at 1 µM [1]: 70% | remaining activity at 1 µM [2]: 95% | remaining activity at 1 µM [3]: 100% | remaining activity at 1 µM [4]: 73% | remaining activity at 1 µM [5]: 32% | remaining activity at 1 µM [6]: 98% | remaining activity at 1 µM [7]: 93% | remaining activity at 1 µM [8]: 60% | remaining activity at 1 µM [9]: 100% | remaining activity at 1 µM [10]: 75% | remaining activity at 1 µM [11]: 93% | remaining activity at 1 µM [12]: 54% | remaining activity at 1 µM [13]: 83% | remaining activity at 1 µM [14]: 100% | remaining activity at 1 µM ([15]; RPS6KA5(Kin.Dom.1-N-terminal)): 75% | remaining activity at 1 µM ([15]; RPS6KA5(Kin.Dom.2-C-terminal)): 100% | remaining activity at 1 µM [16]: 89% | remaining activity at 1 µM [17]: 100% | remaining activity at 1 µM [18]: 100% | remaining activity at 1 µM [19]: 82% | remaining activity at 1 µM [20]: 78% | remaining activity at 1 µM [21]: 93% | remaining activity at 1 µM [22]: 74% | remaining activity at 1 µM [23]: 100% | remaining activity at 1 µM [24]: 100% | remaining activity at 1 µM [25]: 78% | remaining activity at 1 µM [26]: 65% | remaining activity at 1 µM [27]: 80% | remaining activity at 1 µM [28]: 94% | remaining activity at 1 µM [29]: 100% | remaining activity at 1 µM [30]: 98%
